According to patent EP0086256A1, “1-(2,4-Dichlorophenoxy)-3-(3,4-dimethoxy-beta-phenethylamino)-propan-2-0l, processes for its preparation and pharmaceutical compositions containing it” (VEB Arzneimittelwerk Dresden, priority 1981, dated 1983):
Like-named read-outs stand apart in the source and are kept apart here.

What was measured:
[1] = test system: β2-Rezeptoren der Gefäße; experiment: Stimulating effects on vascular β2 receptors, comparison with the known 2,5-dichloro compound; conditions: compared with the 2,4-Dichlor-Verbindung
Source text: 1-Phenoxy-3-alkylamino-propanole-(2) sind mehrfach beschrieben worden (DE-PS 2259 489, DE-PS 2213 044, DD-AP 45 360, BE-PS 783 086, NE-PS 6813 616, GD-PS 1148 563, NE-PS 7307 821, DD-AP 93 349, GB-PS 1078 852, BE-PS 746 107). Auch das 1-(2,5-Dichlor-phenoxy )-3-(3,4-dimethoxy-ß-phenethylamino)-propanol-(2) ist bekannt (JA-0 52033 829); es unterscheidet sich in seiner Wirksamkeit gegenüber der erfindungsgemäßen 2,4-Dichlor-Verbindung jedoch dadurch, daß die ausgeprügten stimulierenden Effekte an den β2-Rezeptoren der Gefäße, die eine große Bedeutung für den therapeutischen Einsatz besitzen, fehlen.

[2] = test system: elektrischen Flimmerschwelle; experiment: Antiarrhythmic effect, rise of the electrical fibrillation threshold; type: in vivo, Meerschweinchen; conditions: for ED50: Cavia porcellus, read-out: ED50, Erhöhung der elektrischen Flimmerschwelle
Source text: (§1) Aus diesem Grunde ist die Anwendung von nichtselektiv wirkenden β-Rezeptorenblockern bei Patienten mit obstruktiven Atemwegserkrankungen kontraindiziert. Aber auch die Anwendung der sogenannten kardioselektiven ß-Rezeptorenblocker, z. […] Disposition des Patienten zur Dyspnoe führen bzw. einen Asthmaanfall auslösen können.

[3] = molecular target: T1, β2-Rezeptoren der Gefäße (Felis catus, UniProt Q9TST5); experiment: Influence on the blood-pressure-lowering effect of isoproterenol; type: in vivo; conditions: Katze
T1 construct: from tissue; host or cells: cat, whole animal (blood vessels)
Source text: as §1

[4] = molecular target: T2, β1-Rezeptoren (Canis lupus familiaris, UniProt P79148); experiment: β1 blockade, heart rate and contractility in the whole animal; type: in vivo; conditions: Hund; relative to Propranolol
T2 construct: from tissue; host or cells: dog, whole animal (heart)
Source text: as §1

[5] = molecular target: T3, β1-Rezeptoren (Felis catus, UniProt Q9TST6); experiment: as above; type: in vivo; conditions: Katze; relative to Propranolol
T3 construct: from tissue; host or cells: cat, whole animal (heart)
Source text: as §1

[6] = molecular target: T4, adrenergen β2-Rezeptoren der Bronchialmuskulatur (Cavia porcellus, UniProt Q8K4Z4); experiment: Tolerance time to asthma-inducing histamine in the conscious guinea pig; type: in vivo, Meerschweinchen; conditions: read-out: ED50, Verdopplung der Toleranzzeit gegenüber dem asthmaauslösenden Histamin
T4 construct: from tissue; host or cells: conscious guinea pig, whole animal (airways)
Source text: as §1

[7] = test system: β1-Rezeptoren; experiment: Isoproterenol antagonism, intestinal peristalsis; conditions: Isoproterenolantagonismus, Propranolol = 100; Kaninchen
[8] = test system: spontan hypertensive Ratte; experiment: Antihypertensive effect in the spontaneously hypertensive rat; type: in vivo; conditions: fold stronger than Propranolol
Source text: as §1

[9] = in vivo; conditions: mouse, ip
Source text: as §1

[10] = test system: Myokardinfarktmodell der Ratte; experiment: Myocardial infarction model, prophylactic oral dosing before coronary ligation; conditions: relative to Propranolol; orale Applikation von 3,6 und 12 mg/kg I über 28 Tage vor Ligatur der A. coronaria sinistra; CPK, GOT, EKG-Veränderungen, relatives Infarktgewicht
[11] = molecular target: T5, β2-Rezeptoren der Gefäße (Canis lupus familiaris, UniProt P54833); experiment: Influence on the blood-pressure-lowering effect of isoproterenol; type: in vivo; conditions: Hund
T5 construct: from tissue; host or cells: dog, whole animal (blood vessels; bronchial muscle in the anaesthetised dog)
Source text: as §1

[12] = test system: β1-Rezeptoren; experiment: Isoproterenol antagonism, lipolysis in epididymal fat; conditions: Isoproterenolantagonismus, Propranolol = 100; Ratte
[13] = molecular target: T6, adrenergen β2-Rezeptoren der Bronchialmuskulatur (Canis lupus familiaris, UniProt P54833); experiment: Respiratory minute volume in the anaesthetised dog; type: in vivo; conditions: narkotisierter Hund; 0,1 mg/kg
T6 construct: from tissue; host or cells: dog, whole animal (blood vessels; bronchial muscle in the anaesthetised dog)
Source text: as §1

[14] = test system: Nikotintremor des Meerschweinchens; experiment: Nicotine tremor, antiparkinson effect; type: in vivo, Meerschweinchen; conditions: compared with Trihexylphenidyl (Parkopan)
Source text: as §1

[15] = test system: adrenergen β2-Rezeptoren der Bronchialmuskulatur; experiment: β2 stimulation of bronchial muscle, isolated tracheal muscle and whole animal; conditions: am isolierten Trachealmuskel als auch im Ganztierversuch
Source text: as §1

T4 sequence (Q8K4Z4 whole entry): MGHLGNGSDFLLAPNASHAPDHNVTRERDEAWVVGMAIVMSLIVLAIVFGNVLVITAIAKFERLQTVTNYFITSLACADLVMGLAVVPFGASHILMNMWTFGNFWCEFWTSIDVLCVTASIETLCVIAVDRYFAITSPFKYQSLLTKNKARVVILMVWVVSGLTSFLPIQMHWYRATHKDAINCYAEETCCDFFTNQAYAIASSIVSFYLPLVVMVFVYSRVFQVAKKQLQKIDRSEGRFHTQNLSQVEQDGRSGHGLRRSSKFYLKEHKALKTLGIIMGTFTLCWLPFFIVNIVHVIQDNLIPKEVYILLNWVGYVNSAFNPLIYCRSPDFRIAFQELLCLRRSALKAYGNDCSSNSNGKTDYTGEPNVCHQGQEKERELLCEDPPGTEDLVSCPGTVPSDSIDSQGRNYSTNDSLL
T1 sequence (Q9TST5 whole entry): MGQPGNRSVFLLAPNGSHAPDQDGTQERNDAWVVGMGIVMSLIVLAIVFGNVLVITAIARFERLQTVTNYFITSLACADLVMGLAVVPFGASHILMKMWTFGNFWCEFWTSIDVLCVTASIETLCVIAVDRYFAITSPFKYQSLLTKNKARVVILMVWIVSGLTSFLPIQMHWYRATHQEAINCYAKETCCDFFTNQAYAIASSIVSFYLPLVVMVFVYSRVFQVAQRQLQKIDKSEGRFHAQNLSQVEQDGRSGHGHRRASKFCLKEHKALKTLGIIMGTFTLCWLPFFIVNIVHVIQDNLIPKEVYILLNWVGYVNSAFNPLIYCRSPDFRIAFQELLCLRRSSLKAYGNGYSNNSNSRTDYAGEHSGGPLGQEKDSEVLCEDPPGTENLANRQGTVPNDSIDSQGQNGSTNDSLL
T6 sequence (P54833 whole entry): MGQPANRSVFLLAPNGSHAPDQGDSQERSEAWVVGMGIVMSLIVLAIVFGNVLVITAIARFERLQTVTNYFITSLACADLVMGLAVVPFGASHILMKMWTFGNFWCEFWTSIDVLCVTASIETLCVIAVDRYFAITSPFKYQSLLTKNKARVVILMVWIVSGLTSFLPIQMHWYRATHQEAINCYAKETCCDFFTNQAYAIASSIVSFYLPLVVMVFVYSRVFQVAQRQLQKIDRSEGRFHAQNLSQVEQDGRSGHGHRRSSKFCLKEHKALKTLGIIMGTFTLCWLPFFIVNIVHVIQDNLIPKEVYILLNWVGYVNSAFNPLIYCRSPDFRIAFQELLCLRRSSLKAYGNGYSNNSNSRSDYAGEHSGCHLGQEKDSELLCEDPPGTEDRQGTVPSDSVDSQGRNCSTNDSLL
T5 sequence (P54833 whole entry): as above
T2 sequence (P79148 whole entry): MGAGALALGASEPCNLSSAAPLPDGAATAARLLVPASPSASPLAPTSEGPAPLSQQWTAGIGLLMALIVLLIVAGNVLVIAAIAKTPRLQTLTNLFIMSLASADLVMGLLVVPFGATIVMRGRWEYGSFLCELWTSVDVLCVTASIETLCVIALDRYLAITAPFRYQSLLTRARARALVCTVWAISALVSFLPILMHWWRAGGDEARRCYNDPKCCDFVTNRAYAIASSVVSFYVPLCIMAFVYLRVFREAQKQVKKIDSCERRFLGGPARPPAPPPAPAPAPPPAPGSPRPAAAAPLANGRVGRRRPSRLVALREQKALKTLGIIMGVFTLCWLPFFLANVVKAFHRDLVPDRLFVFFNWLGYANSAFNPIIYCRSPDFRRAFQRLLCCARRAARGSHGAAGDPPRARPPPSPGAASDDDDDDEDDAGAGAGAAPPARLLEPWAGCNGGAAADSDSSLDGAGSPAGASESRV
T3 sequence (Q9TST6 whole entry): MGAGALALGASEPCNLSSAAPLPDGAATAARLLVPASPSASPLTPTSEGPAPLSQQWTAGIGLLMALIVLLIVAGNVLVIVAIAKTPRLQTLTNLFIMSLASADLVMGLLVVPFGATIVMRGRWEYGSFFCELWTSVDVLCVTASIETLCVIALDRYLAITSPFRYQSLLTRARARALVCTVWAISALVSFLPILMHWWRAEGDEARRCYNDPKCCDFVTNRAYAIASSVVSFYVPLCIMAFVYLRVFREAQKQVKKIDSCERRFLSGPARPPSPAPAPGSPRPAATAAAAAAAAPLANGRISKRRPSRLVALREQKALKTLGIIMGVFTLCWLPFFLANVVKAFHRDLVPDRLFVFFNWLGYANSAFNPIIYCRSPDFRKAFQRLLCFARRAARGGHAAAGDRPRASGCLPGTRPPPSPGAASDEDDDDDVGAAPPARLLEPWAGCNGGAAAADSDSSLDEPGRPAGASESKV

Question: Which “stimulierende Effekte an den β2-Rezeptoren der Gefäße” value [1] does the source give for `COc1ccc(CCNCC(O)COc2cc(Cl)ccc2Cl)cc1OC` (stereo not shown) [1-(2,5-Dichlor-phenoxy)-3-(3,4-dimethoxy-ß-phenethylamino)-propanol-(2)] here?
Answer: fehlen

Question: With Tachmalin as the molecule, how does the “ED50, Erhöhung der elektrischen Flimmerschwelle” value ([2]; Meerschweinchen) read?
Answer: 0,71 mg/kg

Question: Which ED50 ([2]; Meerschweinchen) does the source give for `CC(C)NCC(O)COc1cccc2ccccc12` (stereo not shown) [Propranolol, reference compound] here?
Answer: 1.4 mg/kg

Question: And the “blutdrucksenkender Effekt des Isoproterenols” value [3]?
Answer: aufhebt

Question: With `COc1ccc(CCNCC(O)COc2ccc(Cl)cc2Cl)cc1OC` (stereo not drawn) [I, 1-(2,4-Dichlorphenoxy)-3-(3,4-dimethoxy-β-phenethylamino)-propanol-(2)] as the molecule, how does the “Wirksamkeit an den β1-Rezeptoren (Herzfrequenz und Kontralctilität am Ganztier)” value [4] read?
Answer: nur halb so wirksam wie Propranolol

Question: What about the “Wirksamkeit an den β1-Rezeptoren (Herzfrequenz und Kontralctilität am Ganztier)” value [5] of the same molecule?
Answer: nur halb so wirksam wie Propranolol

Question: What about the ED50 [6] of the same molecule?
Answer: 0.76 mg/kg

Question: And the “Stärke der β1-Rezeptorenblockade, Darmperistaltik” value [7]?
Answer: 100

Question: What about the “antihypertensiver Effekt” value [8] of the same molecule?
Answer: ~10

Question: What about the LD50 [9] of the same molecule?
Answer: 141 mg/kg

Question: What about the “kardioprotektive Wirkung” value [10] of the same molecule?
Answer: zweimal

Question: What about the ED50 ([2]; Meerschweinchen) of the same molecule?
Answer: 0.22 mg/kg

Question: What about the “blutdrucksenkender Effekt des Isoproterenols” value [11] of the same molecule?
Answer: Verstärkung der Isoproterenolwirkung

Question: What about the “blutdrucksenkender Effekt des Isoproterenols” value [3] of the same molecule?
Answer: Verstärkung der Isoproterenolwirkung

Question: What about the “Stärke der β1-Rezeptorenblockade, Lipolyse (Epiditymalfett)” value [12] of the same molecule?
Answer: 220

Question: And the Atemzeitvolumen [13]?
Answer: isoproterenolähnlichen Vergrößerung des Atemzeitvolumens

Question: And the Antiparkinsonwirkung [14]?
Answer: etwa die gleiche Antiparkinsonwirkung wie Trihexylphenidyl

Question: What about the “Stimulation der adrenergen β2-Rezeptoren der Bronchialmuskulatur” value [15] of the same molecule?
Answer: nachweisen läßt

Question: With `CC(C)NCC(O)c1ccc(O)c(O)c1` (stereo not shown) [Isoproterenol, reference compound] as the molecule, how does the ED50 [6] read?
Answer: 0.04 mg/kg

Question: Which results are given for `CC(C)(C)NCC(O)COc1ccc(NC(=O)NC2CCCCC2)cc1` (stereo not shown) [Talinolol, reference compound]?
Answer: Stärke der β1-Rezeptorenblockade, Darmperistaltik [7]: 35; ED50 [2]: 0.31 mg/kg; Stärke der β1-Rezeptorenblockade, Lipolyse (Epiditymalfett) [12]: 96
